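Five compound concentrations were applied to cells in 96-well plates for 48 hours; endpoints were derived by simple linear interpolation of the resulting dose-response curve. Abbreviation: GI50, concentration required for 50% inhibition of growth.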 Active and inactive are the calls of the source. Cut-off read from the data, not from the text of the source: active = GI50 up to about 1.1 µM and inactive = higher.
What was measured:
Test in all cases: growth of human tumour cells (NCI), 48 h
EKVX = test system: EKVX
SF-268 = test system: SF-268
HCT-116 = test system: HCT-116
M14 = test system: M14
BT-549 = test system: BT-549
NCI/ADR-RES = test system: NCI/ADR-RES
ACHN = test system: ACHN
K562 = test system: K562
HOP-62 = test system: HOP-62
COLO 205 = test system: COLO 205
SK-MEL-28 = test system: SK-MEL-28
HT-29 = test system: HT-29
OVCAR-3 = test system: OVCAR-3
SK-MEL-5 = test system: SK-MEL-5
LOX IMVI = test system: LOX IMVI
TK-10 = test system: TK-10
RPMI-8226 = test system: RPMI-8226
SR = test system: SR
NCI-H226 = test system: NCI-H226
SW-620 = test system: SW-620
CAKI-1 = test system: CAKI-1
786-0 = test system: 786-0
PC-3 = test system: PC-3
SK-MEL-2 = test system: SK-MEL-2
SF-295 = test system: SF-295
RXF 393 = test system: RXF 393
T47D = test system: T47D
KM12 = test system: KM12
NCI-H522 = test system: NCI-H522
U-251 = test system: U-251
OVCAR-4 = test system: OVCAR-4
SNB-19 = test system: SNB-19
MDA-N = test system: MDA-N
CCRF-CEM = test system: CCRF-CEM
DU-145 = test system: DU-145
UACC-62 = test system: UACC-62
HOP-92 = test system: HOP-92
MCF7 = test system: MCF7
OVCAR-8 = test system: OVCAR-8
MDA-MB-435 = test system: MDA-MB-435
NCI-H460 = test system: NCI-H460
MOLT-4 = test system: MOLT-4
SK-OV-3 = test system: SK-OV-3
Malme-3M = test system: Malme-3M
A549 = test system: A549
SNB-75 = test system: SNB-75
UO-31 = test system: UO-31
Hs-578T = test system: Hs-578T
HCT-15 = test system: HCT-15
HL-60 = test system: HL-60
UACC-257 = test system: UACC-257
MDA-MB-231 = test system: MDA-MB-231
HCC 2998 = test system: HCC 2998
SF-539 = test system: SF-539
NCI-H23 = test system: NCI-H23
OVCAR-5 = test system: OVCAR-5
SN12C = test system: SN12C
A498 = test system: A498

Measured: GI50

O=C(N1CCN(c2ccccc2)CC1)N(C(=O)C1(c2ccc(Cl)cc2)CCCC1)S(=O)(=O)c1ccccc1
inactive: EKVX 21.1 µM | SF-268 39.9 µM | HCT-116 22.5 µM | M14 21.1 µM | BT-549 27.8 µM | NCI/ADR-RES 23.7 µM | ACHN 14 µM | K562 32.4 µM | HOP-62 29.1 µM | COLO 205 24.7 µM | SK-MEL-28 40.8 µM | HT-29 27.9 µM | OVCAR-3 31.6 µM | SK-MEL-5 19.9 µM | LOX IMVI 21.3 µM | TK-10 41.4 µM | RPMI-8226 38.3 µM | SR 53.2 µM | NCI-H226 33.3 µM | SW-620 32 µM | CAKI-1 26.5 µM | 786-0 34.5 µM | PC-3 26.6 µM | SK-MEL-2 19.9 µM | SF-295 24.6 µM | RXF 393 42.2 µM | T47D 27.7 µM | KM12 35.9 µM | NCI-H522 15.4 µM | U-251 21.8 µM | OVCAR-4 24.1 µM | SNB-19 28.1 µM | MDA-N 22.1 µM | CCRF-CEM 29.7 µM | DU-145 38.5 µM | UACC-62 20.6 µM | HOP-92 32.8 µM | MCF7 26.9 µM | OVCAR-8 33 µM | MDA-MB-435 43.8 µM | NCI-H460 30.5 µM | MOLT-4 23.3 µM | SK-OV-3 30 µM | Malme-3M 26.4 µM | A549 36.2 µM | SNB-75 52.2 µM | UO-31 32.8 µM | Hs-578T 29.8 µM | HL-60 27.7 µM | UACC-257 28.3 µM | MDA-MB-231 26.6 µM | HCC 2998 23.9 µM | SF-539 22.1 µM | NCI-H23 26.7 µM | OVCAR-5 24.8 µM | SN12C 28.3 µM
active: A498 < 0.01 µM
25.1 µM: HCT-15

— ChEMBL document CHEMBL1201862, “PubChem BioAssay data set” (2004)
